Measured values as given in patent US20220133701A1, “METHODS OF TREATING PAIN” (Yeda Research and Development Co. Ltd., priority 2019, published 2022).
Entries after “also recorded” stand apart in the source; their conditions may differ.

T1: importin α3 (endogenous, mouse DRG sensory neurons) (mouse, UniProt O35343 2-521)
T1 construct: whole, on cells; Endogenous protein detected in fixed neurons with a rabbit polyclonal anti-importin α3 antibody in the proximity ligation assay; The protein is intracellular, not on the cell surface; also called Impα3; Karyopherin Subunit Alpha 4
T1 sequence (looked up): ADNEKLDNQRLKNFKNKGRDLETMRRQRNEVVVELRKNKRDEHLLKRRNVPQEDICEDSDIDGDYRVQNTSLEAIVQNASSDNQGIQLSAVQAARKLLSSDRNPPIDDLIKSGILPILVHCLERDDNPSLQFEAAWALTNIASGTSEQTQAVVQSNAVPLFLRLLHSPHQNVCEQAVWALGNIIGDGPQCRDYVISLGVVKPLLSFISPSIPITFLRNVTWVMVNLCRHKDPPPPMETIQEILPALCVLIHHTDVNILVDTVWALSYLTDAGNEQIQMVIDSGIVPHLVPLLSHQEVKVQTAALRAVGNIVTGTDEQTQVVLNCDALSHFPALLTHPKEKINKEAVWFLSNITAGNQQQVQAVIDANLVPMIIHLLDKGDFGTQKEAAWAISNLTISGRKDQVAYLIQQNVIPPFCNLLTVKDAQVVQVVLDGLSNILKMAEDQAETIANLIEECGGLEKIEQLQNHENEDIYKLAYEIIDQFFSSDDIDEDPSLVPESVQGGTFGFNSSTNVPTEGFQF

B1: c-Fos (other, mouse, UniProt P01101 1-380, looked up)
chain: MMFSGFNADYEASSSRCSSASPAGDSLSYYHSPADSFSSMGSPVNTQDFCADLSVSSANFIPTVTAISTSPDLQWLVQPTLVSSVAPSQTRAPHPYGLPTQSAGAYARAGMVKTVSGGRAQSIGRRGKVEQLSPEEEEKRRIRRERNKMAAAKCRNRRRELTDTLQAETDQLEDEKSALQTEIANLLKEKEKLEFILAAHRPACKIPDDLGFPEEMSVASLDLTGGLPEASTPESEEAFTLPLLNDPEPKPSLEPVKSISNVELKAEPFDDFLFPASSRPSGSETSRSVPDVDLSGSFYAADWEPLHSNSLGMGPMVTELEPLCTPVVTCTPGCTTYTSSFVFTYPEADSFPSCAAAHRKGSSSNEPSSDSLSSPTLLAL
notes: whole, on cells; Endogenous protein in both assays; The protein is intracellular, not on the cell surface
B2: shFOS1: AAV9 shRNA targeting c-Fos, SEQ ID NO: 17 (nucleic acid)
DNA: GATCCGGCGGAGACAGATCAACTTGAAGAAGCTTGTTCAAGTTGATCTGTCTCCGCCTTTTTTT

Assays:
mice = assay: Response to noxious heat (metal probe heated to 58° C. applied to paw, paw withdrawal latency); assay type: in vivo, mouse; conditions: for responsiveness to noxious heat: WT mice, 1 hour following i.p. injection, sulmazole 0.5 mg/kg, sulfamethizole 1.25 mg/kg (FIG. 8A)
Experimental: Pain Models—Responses to noxious heat were assessed by applying a metal probe heated to 58° C. to a forelimb paw, while holding the animal. Paw withdrawal latency was timed, typically ranging between 2-4 seconds in wild-type animals. If the paw was not withdrawn within 20 seconds the assay was terminated. The test was repeated three times for each animal, with at least 20 minute intervals between repeats. Heat sensitivity was also assessed using the hot plate test [L. Urien et al., Sci Rep 7, 43493 (2017)]. To this end, mice were placed individually in a 20 cm high Plexiglas box on a metal surface set at 52, 55 or 58° C., and the latency to initiate a nociceptive response (licking, hind paws shaking, jumping) was monitored by videotape. Mice were removed from the plate immediately after a nociceptive response.

SNI mice [1] = assay: Spared nerve injury (SNI) model of neuropathic pain, paw withdrawal threshold (PWT) by Von Frey test; assay type: in vivo, mouse; conditions: for paw withdrawal threshold (PWT) by the Von Frey test: SNI, 60 days following establishing the model, two i.p. injections with 1 week interval, sulmazole 1.25 mg/kg, sulfamethizole 3.12 mg/kg, vs vehicle (FIG. 8B); for relief in the SNI model of neuropathic pain: intraperitoneal injection at both early and late stages of chronic pain (FIGS. 8B, 21A-B, 22A-B); for mechanosensitivity, paw withdrawal threshold by Von Frey test, dose dependence: one hour following i.p. treatment, one week following establishing SNI (FIGS. 21A-B); for mechanosensitivity, Von Frey tests, time dependence: one week after SNI, 1, 5 and 24 hours following i.p. injection (FIGS. 22A-B)
Experimental: (§1) Chronic neuropathic pain was assessed using the spared nerve injury (SNI) model^13. Mice were anaesthetized with Ketamine/Xylazine (10 mg/kg body weight, intraperitoneal). The skin on the lateral surface of the thigh was incised and a section was made directly through the biceps femoris muscle in order to expose the sciatic nerve and its three terminal branches: the sural, common peroneal and tibial nerves. The SNI procedure comprised an axotomy and ligation of the tibial and common peroneal nerves leaving the sural nerve intact. The peroneal and the tibial nerves were tight-ligated and sectioned distal to the ligation. […] Following, mice were evaluated over a period of three months.
(§2) Von Frey tests of sensitivity to mechanical stimuli were conducted as previously described [Marvaldi et al. Dev Neurobiol 75, 217 (2015)]. Briefly, mice were placed in acrylic chambers suspended above a wire mesh grid and allowed to habituate to the testing apparatus for one hour prior to experiments. When the mouse was calm, the von Frey filaments were pressed against the plantar surface of the paw until the filament buckled and held for a maximum of 3 seconds. A positive response was noted if the paw was sharply withdrawn on application of the filament. Testing began with filament target force 13.7 milliNewtons and progressed according to an up-down method. 2 gram Von Frey filaments were used to assess sensitivity to noxious mechanical stimulation, scoring mice responses as follows: 0, no response; 1, visible signs of discomfort without leg withdrawal; 2, withdrawal of the leg.

[2] = system: c-Fos nuclear localization in DRG neurons; assay: c-Fos nuclear localization in cultured DRG neurons (immunostaining, quantified); assay type: cell-based, mouse; conditions: sulmazole 0.5 mg/kg; for c-Fos nuclear accumulation: importin α3 null DRG neurons cultured following SNI, sulfamethizole 1.25 mg/kg (FIG. 9); for c-Fos nuclear localization: wild type DRG neurons cultured following SNI, sulfamethizole 1.25 mg/kg, vs vehicle (FIGS. 8C-D)
Experimental: Histology—Lumbar sections of the spinal cord including Dorsal root ganglia (DRGs) were pre-fixed for 6 minutes before dissection of spinal cord and associated DRGs. Lumbar DRG (L4, unless otherwise indicated) and/or spinal cord were then fixed for six hours in 4% PFA in PBS, washed in PBS and equilibrated in 20% w/v sucrose in PBS prior to serial cryo-sectioning at a thickness of 10-20 μm. Following, one set for each DRG was processed for immunostaining. Briefly, sections were rehydrated in PBS, blocked and permeabilized with 15% Donkey Serum, 5-10% BSA, 0.3% Triton X-100 in PBS for 1-3 hours and incubated overnight at 4° C. with Mouse anti-βIII tubulin (TuJ1, abcam, ab18207), Rabbit anti-cFos (Millipore, Ab5, 4-17), Mouse anti-cFOS (Millipore Ab5 4-17, IF 1:500), Mouse anti-Jun (BD transduction Laboratories, IF 1:1000), Rabbit TRPV1 (Alomone ACC-030, 1:500), Rabbit anti-GFP (abcam, ab6556, IF & WB1:500), Goat anti-CGRP (AbD SEROTEC, 1720-9007), MBP (Abcam ab7349, IF 1:500) or Rabbit anti-importin α3 (1:2000) antibodies. On the following day, sections were washed three times in PBS prior to incubation for 2 hours with different combinations of donkey anti-chicken/rabbit/mouse secondary antibodies (Alexa Fluor 647, 594, 488; Jackson Immunoresearch, 1:1000). Following, coverslips or slides were washed and mounted with Flouromount-G™.
Image processing—Images were acquired on a confocal laser-scanning microscope (Olympus FV1000, 60× oil-immersion objective Olympus UPLSAPO-NA 1.35) using Fluoview (FV10-ASW 4.1) software. DRG sections were scanned using camera settings identical for all genotypes in a given experiment. Images were imported into the Fiji version (www(dot)//fiji(dot)sc) of ImageJ for threshold subtraction and subsequent analyses as detailed below.
Fluorescence Intensity Analysis: Line scan analysis of fluorescence intensity was carried out on high-resolution confocal z-stack from DRG sections to determine fluorescence intensity of c-FOS and importin α3 over cell regions of interest in-vivo. Briefly, the measurement (in pixels) was effected using the ImageJ drawing tool to draw a line across a neuronal segment covering both cytoplasm and nucleus. All collected traces were then averaged for each experimental group. For comparison of nuclear and cytoplasmic staining intensity 8-bit images of either DRG sections or DRG cultured neurons were processed using the Fiji software. The integrated density was calculated as the sum of the values of the pixels in both cytoplasmic and nuclear regions of interest determined on the basis of TuJ-1, CGRP, TRPV1 or DAPI staining, respectively.
Neuronal cultures—Adult mouse DRG neurons were cultured as previously described [Perry et al. Neuron 75, 294 (2012)], with plating on poly-L-lysine and laminin coated plates or glass cover slips for 24 hours. Where required, L3-L5 DRG neurons from the uninjured side served as controls for cultures from SNI mice.

SNI mice [3] = assay: Noxious mechanosensitivity of SNI mice, Von Frey filaments of 2 grams force, score 0-2; assay type: in vivo, mouse; conditions: score 0 to 2 (FIG. 22C)
Experimental: as §1
as §2, with “2 gram Von Frey filaments were used to assess sensitivity to noxious mechanical stimulation, scoring mice responses as follows: 0, no response; 1, visible signs of discomfort without leg withdrawal; 2, withdrawal of the leg.” left out

[4] = target: T1, importin α3 (endogenous, mouse DRG …); assay: proximity ligation assay of endogenous proteins in cultured DRG sensory neurons
Experimental: Proximity Ligation Assay (PLA) in DRG cultures—The Proximity Ligation Assay (PLA) is used to detect spatial proximity within ˜40 nm of two proteins of interest [O. Söderberg et al., Nature Methods 3, 995-1000 (2006)]. DRG neurons were cultured for 24 hours and fixed for 20 minutes in 4% PFA before blocking and permeabilization with 5% Donkey Serum, 1% BSA, 0. 1% Triton X-100 in PBS for 1 hour. They were then incubated with anti-c-Fos (mouse monocolonal 1:1000, Abcam ab208942) and anti-importin α3 (rabbit polyclonal, 1:2000, Michael Bader lab′, MDC Berlin) overnight at 4° C. PLA was performed using Duolink (Sigma: PLA probe anti-mouse minus DU092004, anti-rabbit plus DU092002 with detection using Far-Red DU092013), according to the manufacturer's instructions. Identification of PLA signal within neurons was effected by subsequent immunostaining with goat anti-CGRP (AbD SEROTEC 1720-9007, IF 1:1000) for 60 minutes at room temperature, followed by three washes and an additional 60 minutes incubation with donkey anti-goat Alexa Fluor 488 (Jackson Immunoresearch, 1:1000). Cells were then washed, mounted with Flouromount-G (ThermoFisher Scientific, cat. #00-4958-02) and imaged by confocal microscopy (Olympus FV1000, 60× oil-immersion objective Olympus UPLSAPO-NA 1.35). PLA signals were quantified by counting puncta in ImageJ. […]

Molecule | c-Fos nuclear accumulation [2] | c-Fos nuclear localization [2] | response of SNI injured animals to a noxious mechanical stimulus (SNI mice [3]) | responsiveness to noxious heat (mice) | paw withdrawal threshold (PWT) by the Von Frey test (SNI mice [1]) | relief in the SNI model of neuropathic pain (SNI mice [1]) | mechanosensitivity, paw withdrawal threshold by Von Frey test, dose dependence (SNI mice [1]) | mechanosensitivity, Von Frey tests, time dependence (SNI mice [1]) | also measured
O=C(O)CCc1cc(C(=O)c2ccc(OC3CCCC3)cc2O)ccc1OCc1ccc2c(=O)[nH]oc2c1 [T-5224] |  |  |  |  |  |  |  |  | response to noxious heat (mice; WT (+/+) mice, 20 mg/kg, i.p. (FIGS. 6J-K)): reduced the response to noxious heat; response to noxious heat (mice; importin α3 null (−/−) mice, 20 mg/kg, i.p. (FIGS. 6J-K)): no additional effect beyond the already existing attenuation; paw withdrawal threshold (PWT) in response to noxious heat (mice; wild-type mice, i.p. at the indicated doses, over eight days post-treatment (FIGS. 7A-B)): reduced paw withdrawal in response to noxious heat; also recorded: most marked effect was observed one day following injection of a dose of 10 mg/kg; paw withdrawal in Von Frey tests (SNI mice [1]; wild type animals one week following induction of SNI, 10 mg/kg (FIG. 18)): did ameliorate the paw withdrawal latency
NCC1(CC(=O)O)CCCCC1 [gabapentin] |  |  |  |  |  |  |  |  | paw withdrawal threshold (PWT) in Von Frey tests (SNI mice [1]; SNI mice, 100 mg/kg intraperitoneal two months following establishment of the model, again one week later (FIG. 2D)): significant amelioration of the phenotype
Cc1nnc(NS(=O)(=O)c2ccc(N)cc2)s1 [sulfamethizole, 4-Amino-N-(5-methyl-1,3,4-thiadiazol-2-yl)benzenesulfonamide] | neither drug had any further effect | significantly reduced c-Fos nuclear accumulation | provided relief in this assay that was comparable to that provided by knockout or knockdown of importin α3 | showed efficacy in the assay | significant effects | time and dose-dependent relief | dose dependent effects | time dependent effects | c-Fos nuclear localization ([2]; listed as Sulfamethizole): Significant reductions in c-Fos nuclear localization
COc1cc([S+](C)[O-])ccc1-c1nc2ncccc2[nH]1 (stereo not shown) [sulmazole, 2-(2-Methoxy-4-[methylsulfinyl]phenyl)-1H-imidazo(4,5-b)pyridine] | neither drug had any further effect | significantly reduced c-Fos nuclear accumulation | provided relief in this assay that was comparable to that provided by knockout or knockdown of importin α3 | showed efficacy in the assay | significant effects | time and dose-dependent relief | dose dependent effects | time dependent effects | c-Fos nuclear localization ([2]; listed as Sulmazole): Significant reductions in c-Fos nuclear localization
B1 |  |  |  |  |  |  |  |  | binding result [4]: binds
B2 |  |  |  |  |  |  |  |  | response to noxious heat (mice; wild type mice after intrathecal injection of AAV9 construct, vs control construct): reduced noxious heat responses
